According to ChEMBL document CHEMBL4219144, “Novel 6-aryl substituted 4-pyrrolidineaminoquinazoline derivatives as potent phosphoinositide 3-kinase delta (PI3Kδ) inhibitors” (Bioorg Med Chem, 2018):

Legend:
[1] = target: T1, Phosphatidylinositol 4,5-bisphosphate 3-kinase catalytic subunit delta isoform (Homo sapiens, UniProt O00329); assay: Inhibition of PI3K p110delta (unknown origin) using lipid substrate after 40 mins by kinase-Glo assay
T1 sequence (O00329 whole entry): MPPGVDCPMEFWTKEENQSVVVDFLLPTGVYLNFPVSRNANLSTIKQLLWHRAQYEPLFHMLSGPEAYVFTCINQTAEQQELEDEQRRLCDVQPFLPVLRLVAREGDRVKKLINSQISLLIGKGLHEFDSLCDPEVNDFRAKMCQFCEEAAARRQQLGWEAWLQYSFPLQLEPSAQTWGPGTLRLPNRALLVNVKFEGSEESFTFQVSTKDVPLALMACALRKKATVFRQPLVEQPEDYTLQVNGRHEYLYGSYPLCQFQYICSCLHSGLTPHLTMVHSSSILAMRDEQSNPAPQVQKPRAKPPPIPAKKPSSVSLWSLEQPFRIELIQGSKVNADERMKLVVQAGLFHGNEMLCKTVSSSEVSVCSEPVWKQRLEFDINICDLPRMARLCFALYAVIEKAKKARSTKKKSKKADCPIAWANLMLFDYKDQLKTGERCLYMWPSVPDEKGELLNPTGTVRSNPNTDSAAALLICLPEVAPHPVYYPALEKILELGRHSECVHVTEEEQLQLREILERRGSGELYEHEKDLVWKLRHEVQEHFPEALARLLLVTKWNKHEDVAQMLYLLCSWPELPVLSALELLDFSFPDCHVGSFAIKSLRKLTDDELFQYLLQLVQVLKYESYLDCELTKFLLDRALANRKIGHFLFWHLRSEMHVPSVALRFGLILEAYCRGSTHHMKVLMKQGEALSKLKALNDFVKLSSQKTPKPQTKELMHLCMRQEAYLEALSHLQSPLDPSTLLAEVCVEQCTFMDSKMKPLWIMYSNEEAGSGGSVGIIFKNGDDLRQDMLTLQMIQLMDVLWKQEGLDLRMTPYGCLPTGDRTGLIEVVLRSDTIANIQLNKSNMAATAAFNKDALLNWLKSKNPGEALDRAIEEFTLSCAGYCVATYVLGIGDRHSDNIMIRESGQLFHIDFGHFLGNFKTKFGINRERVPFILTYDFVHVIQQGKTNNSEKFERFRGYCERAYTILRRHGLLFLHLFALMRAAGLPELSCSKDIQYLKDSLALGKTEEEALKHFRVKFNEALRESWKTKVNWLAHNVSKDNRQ

[2] = target: T2, Phosphatidylinositol 4,5-bisphosphate 3-kinase catalytic subunit delta isoform (Homo sapiens) (UniProt O00329); assay: Inhibition of PI3K p110delta (unknown origin) at 100 nM using lipid substrate after 40 mins by kinase-Glo assay relative to control
T2 sequence (whole entry): T1 sequence (O00329 whole entry)

[3] = target: Phosphatidylinositol 4,5-bisphosphate 3-kinase catalytic subunit alpha isoform (Homo sapiens, UniProt P42336); assay: Inhibition of PI3K p110alpha (unknown origin) using lipid substrate after 40 mins by kinase-Glo assay
[4] = target: Phosphatidylinositol 4,5-bisphosphate 3-kinase catalytic subunit beta isoform (Homo sapiens, UniProt P42338); assay: Inhibition of PI3K p110beta (unknown origin) using lipid substrate after 40 mins by kinase-Glo assay
[5] = target: Phosphatidylinositol 4,5-bisphosphate 3-kinase catalytic subunit gamma isoform (Homo sapiens, UniProt P48736); assay: Inhibition of PI3K p110gamma (unknown origin) using lipid substrate after 40 mins by kinase-Glo assay
Ramos = assay: cells; format: functional, cell-based; details: Homo sapiens, 72 h
Description: Antiproliferative activity against human Ramos cells after 72 hrs by MTT assay

Raji = assay: cells; format: functional, cell-based; details: Homo sapiens, 72 h
Description: Antiproliferative activity against human Raji cells after 72 hrs by MTT assay

RPMI-8226 = assay: Antiproliferative activity against human RPMI8226 cells after 72 hrs by MTT assay; format: functional, cell-based; details: RPMI-8226, 72 h
SU-DHL-6 = assay: Antiproliferative activity against human SUDHL6 cells after 72 hrs by CCK8 assay; format: functional, cell-based; details: SU-DHL-6, 72 h
[6] = Cmax in Sprague-Dawley rat at 10 mg/kg, po by LC-MS/MS analysis; format: ADME, organism-based; design: dose 10 mg/kg, route oral; details: in vivo
[7] = AUC in Sprague-Dawley rat at 10 mg/kg, po by LC-MS/MS analysis; format: ADME, organism-based; details: in vivo
Homo sapiens [8] = organism: Homo sapiens; assay: Selectivity ratio of IC50 for PI3K p110alpha (unknown origin) to IC50 for PI3K p110delta (unknown origin)
Homo sapiens [9] = organism: Homo sapiens; assay: Selectivity ratio of IC50 for PI3K p110beta (unknown origin) to IC50 for PI3K p110delta (unknown origin)
Homo sapiens [10] = organism: Homo sapiens; assay: Selectivity ratio of IC50 for PI3K p110gamma (unknown origin) to IC50 for PI3K p110delta (unknown origin)
Rattus norvegicus [11] = assay: Clearance in Sprague-Dawley rat at 10 mg/kg, po by LC-MS/MS analysis; format: ADME, organism-based; details: in vivo
Rattus norvegicus [12] = assay: Apparent volume of distribution in Sprague-Dawley rat at 10 mg/kg, po by LC-MS/MS analysis; format: ADME, organism-based; details: in vivo
Rattus norvegicus [13] = assay: Half life in Sprague-Dawley rat at 10 mg/kg, po by LC-MS/MS analysis; format: ADME, organism-based; details: in vivo
[14] = Cmax in Sprague-Dawley rat at 3 mg/kg, po by LC-MS/MS analysis; format: ADME, organism-based; design: dose 3 mg/kg, route oral; details: in vivo
[15] = AUC in Sprague-Dawley rat at 3 mg/kg, po by LC-MS/MS analysis; format: ADME, organism-based; details: in vivo
[16] = Oral bioavailability in Sprague-Dawley rat at 3 mg/kg by LC-MS/MS analysis; format: ADME, organism-based; details: in vivo
[17] = target: T1, Phosphatidylinositol 4,5-bisphosphate 3-kinase catalytic subunit delta isoform; assay: Inhibition of PI3Kdelta (unknown origin)

Phosphatidylinositol 4,5-bisphosphate 3-kinase catalytic subunit gamma isoform, sequence (P48736 whole entry, canonical isoform): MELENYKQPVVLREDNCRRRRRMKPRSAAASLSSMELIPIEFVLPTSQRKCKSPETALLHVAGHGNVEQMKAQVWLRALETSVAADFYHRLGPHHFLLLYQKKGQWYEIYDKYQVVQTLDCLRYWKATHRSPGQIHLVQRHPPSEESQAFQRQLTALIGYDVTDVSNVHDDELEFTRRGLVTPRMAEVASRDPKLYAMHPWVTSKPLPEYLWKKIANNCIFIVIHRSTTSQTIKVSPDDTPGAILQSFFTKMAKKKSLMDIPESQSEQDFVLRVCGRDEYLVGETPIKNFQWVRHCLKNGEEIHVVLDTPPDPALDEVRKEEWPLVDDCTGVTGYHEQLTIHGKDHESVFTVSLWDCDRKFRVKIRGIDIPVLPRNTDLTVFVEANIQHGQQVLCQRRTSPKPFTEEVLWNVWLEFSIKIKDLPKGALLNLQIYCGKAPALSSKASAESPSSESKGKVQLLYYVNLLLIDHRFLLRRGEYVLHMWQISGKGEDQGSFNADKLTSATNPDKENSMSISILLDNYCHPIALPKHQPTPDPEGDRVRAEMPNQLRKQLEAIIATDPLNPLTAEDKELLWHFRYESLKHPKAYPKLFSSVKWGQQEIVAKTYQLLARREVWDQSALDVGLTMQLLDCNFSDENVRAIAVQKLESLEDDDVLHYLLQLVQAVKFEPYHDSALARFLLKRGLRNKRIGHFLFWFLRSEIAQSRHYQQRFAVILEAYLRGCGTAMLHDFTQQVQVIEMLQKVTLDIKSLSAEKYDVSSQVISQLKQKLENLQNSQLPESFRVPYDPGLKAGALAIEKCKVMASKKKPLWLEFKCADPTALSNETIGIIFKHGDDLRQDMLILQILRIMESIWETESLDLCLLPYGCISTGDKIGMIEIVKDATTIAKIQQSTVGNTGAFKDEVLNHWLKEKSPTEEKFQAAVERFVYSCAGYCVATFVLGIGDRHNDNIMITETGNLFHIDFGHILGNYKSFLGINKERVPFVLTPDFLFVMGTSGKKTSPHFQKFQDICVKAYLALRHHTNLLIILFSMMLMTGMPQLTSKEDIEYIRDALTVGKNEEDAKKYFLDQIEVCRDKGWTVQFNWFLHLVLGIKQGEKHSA
Phosphatidylinositol 4,5-bisphosphate 3-kinase catalytic subunit beta isoform, sequence (P42338 whole entry, canonical isoform): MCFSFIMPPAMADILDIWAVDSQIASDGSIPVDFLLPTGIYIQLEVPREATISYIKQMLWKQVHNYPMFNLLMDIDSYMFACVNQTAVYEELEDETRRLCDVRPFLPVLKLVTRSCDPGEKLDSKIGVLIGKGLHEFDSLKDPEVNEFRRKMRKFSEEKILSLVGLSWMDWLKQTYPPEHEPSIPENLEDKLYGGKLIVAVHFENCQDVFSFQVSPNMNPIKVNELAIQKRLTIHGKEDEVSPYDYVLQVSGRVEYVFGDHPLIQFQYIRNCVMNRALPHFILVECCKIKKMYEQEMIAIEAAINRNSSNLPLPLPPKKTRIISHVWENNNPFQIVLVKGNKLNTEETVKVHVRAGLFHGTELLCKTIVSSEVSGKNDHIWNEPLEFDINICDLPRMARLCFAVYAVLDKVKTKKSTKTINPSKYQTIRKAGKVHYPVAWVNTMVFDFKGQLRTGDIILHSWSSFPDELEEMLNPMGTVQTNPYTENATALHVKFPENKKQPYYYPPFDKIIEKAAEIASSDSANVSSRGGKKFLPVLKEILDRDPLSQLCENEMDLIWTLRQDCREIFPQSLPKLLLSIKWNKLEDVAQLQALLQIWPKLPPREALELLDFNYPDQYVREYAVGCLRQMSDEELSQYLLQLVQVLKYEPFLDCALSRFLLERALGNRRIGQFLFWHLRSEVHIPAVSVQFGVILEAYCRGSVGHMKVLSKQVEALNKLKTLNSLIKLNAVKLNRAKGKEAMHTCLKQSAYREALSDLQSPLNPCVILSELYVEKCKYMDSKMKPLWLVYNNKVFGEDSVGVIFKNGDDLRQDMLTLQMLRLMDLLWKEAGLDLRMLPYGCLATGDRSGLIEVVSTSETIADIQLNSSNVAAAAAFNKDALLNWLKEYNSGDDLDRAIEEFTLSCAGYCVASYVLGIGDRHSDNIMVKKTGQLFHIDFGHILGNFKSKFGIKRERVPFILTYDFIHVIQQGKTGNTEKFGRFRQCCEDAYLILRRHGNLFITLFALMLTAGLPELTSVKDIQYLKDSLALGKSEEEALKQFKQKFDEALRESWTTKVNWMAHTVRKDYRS
Phosphatidylinositol 4,5-bisphosphate 3-kinase catalytic subunit alpha isoform, sequence (P42336 whole entry, canonical isoform): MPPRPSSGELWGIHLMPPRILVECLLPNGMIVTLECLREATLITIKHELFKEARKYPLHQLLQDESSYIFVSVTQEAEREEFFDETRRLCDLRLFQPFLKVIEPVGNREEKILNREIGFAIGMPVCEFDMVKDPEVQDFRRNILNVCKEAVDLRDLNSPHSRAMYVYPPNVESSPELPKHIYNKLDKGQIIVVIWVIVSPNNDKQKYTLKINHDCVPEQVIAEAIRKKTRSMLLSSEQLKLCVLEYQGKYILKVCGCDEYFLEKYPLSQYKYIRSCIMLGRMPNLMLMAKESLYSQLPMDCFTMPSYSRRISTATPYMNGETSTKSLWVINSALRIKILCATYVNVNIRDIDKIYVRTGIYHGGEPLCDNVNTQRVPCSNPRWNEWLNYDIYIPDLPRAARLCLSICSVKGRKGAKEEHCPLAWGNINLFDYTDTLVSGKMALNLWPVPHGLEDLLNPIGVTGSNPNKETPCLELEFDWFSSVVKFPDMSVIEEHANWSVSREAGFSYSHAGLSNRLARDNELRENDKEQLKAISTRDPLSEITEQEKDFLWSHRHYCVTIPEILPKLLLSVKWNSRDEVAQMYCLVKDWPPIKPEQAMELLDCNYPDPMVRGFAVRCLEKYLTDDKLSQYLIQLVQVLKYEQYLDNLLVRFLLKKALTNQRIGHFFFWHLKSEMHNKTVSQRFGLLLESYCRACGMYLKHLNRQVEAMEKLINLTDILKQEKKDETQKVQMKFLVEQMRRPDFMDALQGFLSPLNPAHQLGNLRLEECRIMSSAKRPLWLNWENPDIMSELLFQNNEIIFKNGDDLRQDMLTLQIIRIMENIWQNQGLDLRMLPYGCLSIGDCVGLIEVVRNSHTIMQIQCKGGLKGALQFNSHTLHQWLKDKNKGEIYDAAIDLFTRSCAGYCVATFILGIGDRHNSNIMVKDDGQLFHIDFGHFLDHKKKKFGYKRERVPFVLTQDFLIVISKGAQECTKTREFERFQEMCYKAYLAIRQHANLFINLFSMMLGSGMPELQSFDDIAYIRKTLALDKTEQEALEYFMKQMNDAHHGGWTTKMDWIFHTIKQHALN

SMILES | IC50 [1] | inhibition [2] | other results
COc1ccc(-c2ccc3ncnc(N[C@H]4CCN(C(=O)C5CCOCC5)C4)c3c2)cn1 | 3.4 nM | 97% | 
COc1ccc(-c2ccc3ncnc(N[C@H]4CCN(C(=O)C(C)(C)C)C4)c3c2)cn1 |  | 79% | 
O=C(C1CC1)N1CC[C@H](Nc2ncnc3ccc(-c4ccc(OC(F)(F)F)cc4)cc23)C1 |  | 13% | 
COc1cc(C(N)=O)cc(-c2ccc3ncnc(N[C@H]4CCN(C(=O)OC(C)(C)C)C4)c3c2)c1 |  | 82% | 
COc1ccc(-c2ccc3ncnc(N[C@H]4CCN(C(=O)C5CCCCC5)C4)c3c2)cn1 | 2.9 nM | 85% | 
COc1ccc(-c2ccc3ncnc(N[C@H]4CCN(C(=O)C5CC5)C4)c3c2)cn1 | 4.5 nM | 97% | IC50 [3]: 25.4 nM; IC50 [4]: 220 nM; IC50 [5]: 224 nM; IC50 (Ramos): 520 nM; IC50 (Raji): 2130 nM; IC50 (RPMI-8226): 1460 nM; IC50 (SU-DHL-6): 500 nM
COc1ccc(-c2ccc3ncnc(N[C@H]4CCN(S(=O)(=O)C5CC5)C4)c3c2)cn1 | 13.5 nM | 83% | 
CC(C)(C)OC(=O)N1CC[C@H](Nc2ncnc3ccc(-c4ccc(OC(F)(F)F)cc4)cc23)C1 |  | 2% | 
COc1ccc(-c2ccc3ncnc(N[C@H]4CCN(C(=O)c5ccccc5)C4)c3c2)cn1 | 3 nM | 87% | 
COc1ncc(-c2ccc3ncnc(N[C@H]4CCN(C(=O)C5CCOCC5)C4)c3c2)cc1C#N | 2.7 nM | 99% | IC50 [3]: 25.6 nM; IC50 [4]: 264 nM; IC50 [5]: 174 nM; IC50 (Ramos): 570 nM; IC50 (Raji): > 10000 nM; IC50 (RPMI-8226): 4340 nM; IC50 (SU-DHL-6): 4550 nM; Cmax [6]: 664 ng/mL; AUC [7]: 524 ng·h/mL; Ratio IC50 (Homo sapiens [8]): 10; Ratio IC50 (Homo sapiens [9]): 100; Ratio IC50 (Homo sapiens [10]): 65; CL (Rattus norvegicus [11]): 40 mL/min/kg; Vz (Rattus norvegicus [12]): 113 L/kg; t1/2 (Rattus norvegicus [13]): 2.99 h
CC[C@H](Nc1ncnc2[nH]cnc12)c1nc2cccc(F)c2c(=O)n1-c1ccccc1 [IDELALISIB] |  | 96% | IC50 (Ramos): > 10000 nM; IC50 (Raji): 9950 nM; IC50 (RPMI-8226): 5490 nM; IC50 (SU-DHL-6): 650 nM; Cmax [14]: 129 ng/mL; AUC [15]: 422 ng·h/mL; bioavailability [16]: 39%
CC(C)(C)OC(=O)N1CC[C@H](Nc2ncnc3ccc(-c4cnc(N)nc4)cc23)C1 |  | 44% | 
COc1ccc(-c2ccc3ncnc(N[C@@H]4CCN(C(=O)C5CCOCC5)C4)c3c2)cn1 |  | 46% | 
COc1ccc(-c2ccc3ncnc(N[C@H]4CCN(C(=O)c5ccco5)C4)c3c2)cn1 | 5.5 nM | 97% | 
COc1ncc(-c2ccc3ncnc(N[C@H]4CCN(C(=O)OC(C)(C)C)C4)c3c2)cc1C#N | 18.7 nM | 88% | 
COc1ccc(-c2ccc3ncnc(N[C@H]4CCNC4)c3c2)cn1 |  | 38% | 
NC(=O)c1cc(-c2ccc3ncnc(-c4cccc(C(=O)NCCN5CCOCC5)c4)c3c2)ccc1Cl |  |  | IC50 [17]: 17 nM

SMILES | IC50 [1] | inhibition [2] | other results
COc1ccc(-c2ccc3ncnc(N[C@H]4CCN(C(=O)CC(C)(C)C)C4)c3c2)cn1 | 4.6 nM | 94% | 
COc1ccc(-c2ccc3ncnc(N[C@@H]4CCN(C(=O)OC(C)(C)C)C4)c3c2)cn1 |  | 0% | 
COc1ccc(-c2ccc3ncnc(N[C@H]4CCN(C(=O)C5CC5)C4)c3c2)cc1C(N)=O |  | 84% | 
COc1ccc(-c2ccc3ncnc(N[C@H]4CCN(C(=O)C5CCCC5)C4)c3c2)cn1 | 4.4 nM | 97% | 
COc1ccc(-c2ccc3ncnc(N[C@H]4CCN(C(=O)OC(C)(C)C)C4)c3c2)cc1C(N)=O |  | 74% | 
COc1ncc(-c2ccc3ncnc(N[C@H]4CCN(C(=O)C5CC5)C4)c3c2)cc1C#N | 5.5 nM | 97% | 
C=CC(=O)N1CC[C@H](Nc2ncnc3ccc(-c4ccc(OC)nc4)cc23)C1 |  | 0% | 
COc1ccc(-c2ccc3ncnc(N[C@H]4CCN(C(=O)Cc5ccccc5)C4)c3c2)cn1 |  | 79% | 
COc1ccc(-c2ccc3ncnc(N[C@H]4CCN(C(=O)C5CCC5)C4)c3c2)cn1 | 5.2 nM | 98% | 
O=C(CCCCCCC(=O)Nc1ccccc1)NO [VORINOSTAT] |  |  | IC50 (RPMI-8226): 660 nM
COc1ccc(-c2ccc3ncnc(N[C@H]4CCN(C(=O)C5CCOCC5)C4)c3c2)cc1C(N)=O | 7.8 nM | 92% | 
COc1ccc(-c2ccc3ncnc(N[C@H]4CCN(C(=O)OC(C)(C)C)C4)c3c2)cn1 | 8.1 nM | 91% | 
COc1ncc(-c2ccc3ncnc(N[C@H]4CCN(C(=O)C5CCOCC5)C4)c3c2)cc1[N+](=O)[O-] | 3.1 nM | 99% | IC50 [3]: 26.7 nM; IC50 [4]: 585 nM; IC50 [5]: 199 nM; IC50 (Ramos): 780 nM; IC50 (Raji): 1480 nM; IC50 (RPMI-8226): 2710 nM; IC50 (SU-DHL-6): 5970 nM
COc1ccc(-c2ccc3ncnc(N[C@H]4CCN(C(C)=O)C4)c3c2)cn1 |  | 79% | 
COc1ncc(-c2ccc3ncnc(N[C@H]4CCN(C(=O)OC(C)(C)C)C4)c3c2)cc1[N+](=O)[O-] |  | 51% | 
CC(C)(C)OC(=O)N1CC[C@H](Nc2ncnc3ccc(-c4ccc(N)nc4)cc23)C1 |  | 17% | 
